# Results published in patent publication US12390483B2, “Compounds and methods for treating neurological and cardiovascular conditions” (Astrocyte Pharmaceuticals, Inc., priority 2016, dated 2025).
# Entries after “also recorded” stand apart in the source; their conditions may differ.
# Tests used:
# [1] = tested on: photothrombosis-induced stroke infarctions; assay: Photothrombosis-induced stroke in mice, TTC-stained brain infarction size; format: in vivo; settings: for size of the brain infarction (TTC staining): 24 hours after stroke, versus vehicle; for size of brain infarctions in mice pretreated with the A3 receptor antagonist MRS1523: MRS1523 2 mg/kg i.p. at 0 and 2 hours, treatment within 30 minutes of clot formation, 24 hours
# Description: Photothrombosis-induced Stroke: Photothrombosis was performed as described in Zheng et al 2010 (PloS One 5 (12): e14401). In brief, Rose Bengal is a fluorescent dye that when injected into the vasculature and excited, generates singlet oxygen that damages the endothelial wall and induces a local thrombosis (clot). Using this technique, mice were given a 0.1 mL tail-vein injection of sterilized Rose Bengal (RB, Sigma, U.S.A.) in artificial cerebral spinal fluid (aCSF). The RB concentration was 20 mg/mL. A cortical region was centered in the imaging field and illuminated with a green laser (543 nm, 5 mW) using a 0.8-NA 40× water-immersion objective (Nikon, Tokyo). The clot formation was monitored in real time until the targeted vessel or downstream capillaries were firmly occluded. Stable clots were subsequently identified by a non-fluorescent vessel segmentation ending with highly fluorescent regions. […] Treatments, MRS4322 (0.16 mg/kg; 0.5 μmol/kg) or MRS2365 (0.24 mg/kg; 0.5 μmol/kg) were introduced via intraperitoneal injections (i.p.). […] Animals and Photothrombosis-induced Stroke: Stroke was performed as described in Zheng et al 2010 (PloS One 5 (12): e14401). Female C57Bl/6 mice (4-6 months) were used in this study. From the methods of this manuscript: Mice were anesthetized at 3% isoflurane with 100% oxygen and subsequently maintained at 1% isoflurane through a nosecone. Depth of anesthesia was monitored and regulated according to vital signs, pinch withdrawal and eye blinks. Body temperature was maintained at 37° C. by a feedback-controlled heating pad (Gaymar T/Pump). Vital signs including oxygen saturation, respiratory rate, and heart rate were continuously monitored by using the MouseOx system (STARR Life Sciences). The hair on each mouse's head was trimmed and a small incision was made in the scalp to expose the skull. A custom-made stainless steel plate was glued to the skull with VetBond Tissue Adhesive (3M, St Paul, MN). A cranial thinned-skull imaging window was created over the right primary somatosensory cortex (˜1.5 mm posterior to Bregma and 2 mm lateral from midline) depending on the experiment. In brief, a large region of the skull was first thinned with the electric drill and then further thinned with a surgical blade. The final thickness of the thinned skull was approximately 50 μm. After the cranial imaging window was created, mice were transferred to microscope stage and used for photothrombosis or imaging experiments. For the repeat imaging experiments, the plate was carefully detached from the skull and the scalp was sutured (Ethicon 6-0 sild suture). After each experiment, the mice were either returned to cages until the next timepoint or sacrificed. All procedures were approved by the Institutional Animal Care and Use Committee (IACUC) at University of Texas Health Science Center at San Antonio. Thirty minutes following stroke or sham (uninjured), mice were treated with either vehicle (saline) or drugs (MRS4322, MRS2365, MRS5698 or Cl-IBMECA). Post photothrombotic infarction evaluation. The size of cerebral infarcts was evaluated using 2,3,5-Triphenyltetrazolium chloride (TTC) staining as described in Zheng et al 2010 (PloS One 5 (12): e14401). In brief, RB-induced lesions in brain slices were stained with TTC. TTC is a colorless dye that stains healthy brain tissue red when reduced by the mitochondrial enzyme succinyl dehydrogenase (Bederson J B et al., 1986). The absence of staining in necrotic tissue is then used to define the area of a brain infarction. Mice were sacrificed by cervical dislocation, their brains removed and then placed in ice cold HBSS for 3 minutes. […] The sections were fixed in 10% buffered formaldehyde solution overnight at 4° C. Slices were imaged on a flatbed scanner (HP scanjet 8300) for analysis of the lesion size at 1200 dpi. Photothrombosis-induced Stroke: Photothrombosis was performed as described in Zheng et al. 2010 (PloS One 5 (12): e14401). […]
# [2] = Pharmacokinetics of MRS4322 following intraperitoneal administration of MRS2365 to mice; format: in vivo; settings: for Plasma Concentration by Subject / Plasma Concentration Mean / Brain Concentration by Subject / Brain Concentration Mean: MRS4322 in mice after MRS2365 0.24 mg/kg i.p.; for Plasma Concentration by Subject / Brain Concentration by Subject: subjects A-C; for Plasma Concentration by Subject / Plasma Concentration Mean: BLQ = below 2.26 ng/mL; for Brain Concentration by Subject / Brain Concentration Mean: BLQ = below 9.40 ng/g
# Description: Animals: Female C576BL/6J mice weighing approximately 0.02 Kg were used for this study, supplied by the University of Texas Health Sciences Center (San Antonio, TX). All studies were conducted under approved University of Texas Health Sciences Center IACUC protocols.
# Drug Administration: MRS2365 was solubilized in phosphate-buffered saline and then diluted in phosphate-buffered saline to prepare dosing solution. Final dosing solution concentration of MRS2365 was 100 μM. A 100 μL volume of dosing solution was administered intraperitoneally to each mouse per 20 gram body weight; MRS2365 was administered intraperitoneally at 0.5 μmol/kg or 0.24 mg/kg. Three mice were administered MRS2365 for each sampling timepoint.
# Tissue Sampling: Blood and brain samples were obtained at 0, 0.083, 0.25, 0.5, 1, 2 and 8 hours post-dose. At each timepoint, mice (3/timepoint) were euthanized in a […] chamber. Whole blood was obtained by cardiac puncture into Microtainer tubes containing heparin and immediately centrifuged for preparation of plasma; plasma was stored at −80° C. At each timepoint, whole brain samples were obtained by decapitation, rinsed in ice-cold phosphate-buffered saline and weighed. Brain samples were then immediately flash-frozen in liquid nitrogen and stored at −80° C.
# The following table outlines the LC and MS/MS conditions employed:
# The calibration range for the MRS4322 plasma concentration standard curve was 2.26-241 ng/mL. The calibration range for MRS4322 brain concentrations was 2.35-242 ng/mL.
# For bioanalysis of brain concentrations of MRS4322, brain samples were homogenized in ice-cold phosphate-buffered saline in a 4× dilution. Aliquots of the resulting diluted brain homogenate were treated with acetonitrile and analyzed by LC-MS/MS. Because of the 4× homogenate dilution, the calibration range of the MRS4322 brain standard curve was translated to 9.40-968 ng/gm. In several samples, MRS4322 were detectable but fell below the brain LLOQ of 9.40 ng/gm but were above background; in these cases the final reported brain concentration was extrapolated based on MS peak heights.
# [3] = Example 6: mice, 0.5 μmol/kg i.p. within 30 minutes of clot formation
Structure (SMILES),"size of the brain infarction (TTC staining) [1, 3]",size of brain infarctions in mice pretreated with the A3 receptor antagonist MRS1523 [1],"metabolic fate following intraperitoneal administration to mice ([2]; MRS2365 0.5 μmol/kg i.p., mice)","size of the brain infarction (TTC staining) ([1]; Example 7: mice, 100 ul of 100 uM i.p. within 30 minutes of clot formation)",efficacy in the mouse photothrombotic stroke model ([1]; summary statement),Plasma Concentration by Subject ([2]; 0 h),Plasma Concentration Mean ([2]; 0 h),Brain Concentration by Subject ([2]; 0.083 h),Brain Concentration Mean ([2]; 0.083 h),Brain Concentration by Subject ([2]; 1 h),Brain Concentration Mean ([2]; 1 h),Brain Concentration by Subject ([2]; 2 h),Brain Concentration Mean ([2]; 2 h),Plasma Concentration by Subject ([2]; 8 h),Brain Concentration by Subject ([2]; 8 h),Plasma Concentration Mean ([2]; 8 h),Brain Concentration Mean ([2]; 8 h)
CSc1nc(N)c2ncn([C@H]3[C@H](O)[C@H](O)[C@]4(COP(=O)(O)OP(=O)(O)O)C[C@H]34)c2n1 [MRS2365],significantly reduced,not reduced,rapidly and completely metabolized to MRS4322,–,–,–,–,–,–,–,–,–,–,–,–,–,–
CSc1nc(N)c2ncn([C@H]3[C@H](O)[C@H](O)[C@]4(CO)C[C@H]34)c2n1 [MRS4322],significantly reduced,reversed by MRS1523; also recorded: not reduced,–,significantly reduced,significant efficacy,BLQ,BLQ,BLQ,BLQ,BLQ,BLQ,BLQ,BLQ,BLQ,BLQ,BLQ,BLQ
